Experimental data: patent publication US20250170140A1, “PHARMACEUTICAL COMPOSITION FOR PREVENTING OR TREATING CANCER COMPRISING CARNITINE ACYLCARNITINE CARRIER INHIBITOR AND PEROXISOMAL BETA OXIDATION INHIBITOR” (priority 2021, published 2025)

How the values were obtained:
Assay type in all cases: cell-based
MKN-28 cells = experiment: SRB assay, stomach cancer cell line MKN-28
Description: (§1) As a comparison, omeprazole (KN510) and trimetazidine (KN713), a 3-ketoacyl CoA thiolase inhibitor, were co-treated. […] After cell inoculation, 96-well cell culture plates were incubated for 24 hours before the addition of experimental drugs. […] The cells were then incubated in a CO2 incubator for 48 hours, after which the assay was terminated by the addition of cold TCA. Cells were fixed in situ by gently adding 50 μl of cold 50% (w/v) TCA (final concentration: 10% TCA) and incubated at 4° C. for 60 min. The supernatant was discarded, and the plate was washed five times with distilled water and air dried. Sulforhodamine B (SRB) solution (100 μl) of 0.4% (w/v) in 1% acetic acid was added to each well, and the plate was left at room temperature for 10 min. After staining, unbound dye was removed by washing five times with 1% acetic acid, and the plate was air-dried. The bound dye was then solubilized with 10 mM trizma base, and the absorbance was recorded at 515 nm using an automated plate reader. […] The predicted synergistic activity of a combination of the present invention can be calculated using the Colby Equation in Equation 1 (S.R. Colby, Weeds, 1967, pp. 15, 20-22): In the present invention, the actual measure of anti-cancer activity of the combination treatment was the inhibition rate of cancer cell growth (%), and the predicted value (E) of the combination treatment was measured by substituting it into the above Colby Equation.

DU-145 cells = experiment: SRB assay, prostate cancer cells DU-145
Description: as §1

AGS cells = experiment: SRB assay, stomach cancer cell line AGS
Description: as §1

A549 cells = experiment: SRB assay, lung cancer cells A549
Description: as §1

MCF-7 cells = experiment: SRB assay, breast cancer cell line MCF-7
Description: To determine the effect of the combination treatment of omeprazole (KN510), a carnitine acylcarnitine carrier inhibitor, and thioridazine (KN714), a peroxisome beta-oxidation inhibitor, on cancer cell growth, the extent of cancer cell death was determined using the SRB assay (Sulforhodamine B colorimetric assay), and the degree of cancer cell growth was analyzed relative to the control (100%). As a comparison, omeprazole (KN510) and trimetazidine (KN713), a 3-ketoacyl CoA thiolase inhibitor, were co-treated.
First, a pancreatic cancer cell line, MIA PaCa-2, was prepared, and cells (100 μl) were inoculated into 96-well cell culture plates at plating densities ranging from 5,000 to 20,000 cells/well, depending on the doubling time of each cell line. After cell inoculation, 96-well cell culture plates were incubated for 24 hours before the addition of experimental drugs. MIA PaCa2 cells were treated with omeprazole (KN510) at concentrations of 10^−8 M, 10^−7 M, 10^−6 M, 10^−5 M, 10^−4 M, and 10^−3 M, thioridazine (KN714) at concentrations of 10^−10 M, 10^−9 M, 10^−8M, 10^−7 M, 10^−6 M, and 10^−5 M, and trimetazidine (KN713) at concentrations of 10^−7 M, 10^−6 M, 10^−5 M, 10^−4 M, 10^−3 M, and 10^−2 M, respectively.
The cells were then incubated in a CO2 incubator for 48 hours, after which the assay was terminated by the addition of cold TCA. Cells were fixed in situ by gently adding 50 μl of cold 50% (w/v) TCA (final concentration: 10% TCA) and incubated at 4° C. for 60 min. The supernatant was discarded, and the plate was washed five times with distilled water and air dried. Sulforhodamine B (SRB) solution (100 μl) of 0.4% (w/v) in 1% acetic acid was added to each well, and the plate was left at room temperature for 10 min. After staining, unbound dye was removed by washing five times with 1% acetic acid, and the plate was air-dried. The bound dye was then solubilized with 10 mM trizma base, and the absorbance was recorded at 515 nm using an automated plate reader.
Based on Table 1 above and GI50 values, omeprazole (KN510) and/or thioridazine (KN714) concentrations were added to each well such that the concentrations were as shown in the following groups, and then cancer cell death was measured in the same manner as in Examples 1-1 above. • 1) Control, • 2) Thioridazine (KN714) 5 μM alone treatment group, • 3) Thioridazine (KN714) 10 μM alone treatment group, • 4) Omeprazole (KN510) 200 μM alone treatment group, • 5) Omeprazole (KN510) 200 μM+thioridazine (KN714) 5 μM combination treatment group, • 6) Omeprazole (KN510) 200 μM+thioridazine (KN714) 10 μM combination treatment group.
When the anticancer activity of two compounds in combination is greater than the simple sum of the anticancer activity of the individual compounds (expected activity), this is called synergistic. The predicted synergistic activity of a combination of the present invention can be calculated using the Colby Equation in Equation 1 (S.R. Colby, Weeds, 1967, pp. 15, 20-22): […]
In the present invention, the actual measure of anti-cancer activity of the combination treatment was the inhibition rate of cancer cell growth (%), and the predicted value (E) of the combination treatment was measured by substituting it into the above Colby Equation. If the actual value is greater than the predicted value, it can be judged that there is a synergistic effect, and in this invention, the predicted value calculated by the Colby Equation and the actual value were compared to further verify the synergistic effect of the combination.
Experiments were performed using the breast cancer cell lines MCF-7 cells (1.2×10^4 cells/well) and MDA-MB-231 cells (8.0×10^3 cells/well) in the same manner as in Examples 1-2 and 1-3 above.

CAKI-1 cells = experiment: SRB assay, renal cell carcinoma cell line CAKI-1
Description: as §1

HCT-116 cells = experiment: SRB assay, colon cancer cell line HCT-116
Description: as §1

DLD-1 cells = experiment: SRB assay, colon cancer cell line DLD-1
Description: as §1

[1] = Homo sapiens, KN510 100 μM, read-out: Inhibition rate of cancer cell growth (%) (Actual value)
[2] = Homo sapiens, KN510 200 μM, read-out: Inhibition rate of cancer cell growth (%) (Actual value)
[3] = Homo sapiens, KN714 5 μM, read-out: Inhibition rate of cancer cell growth (%) (Actual value)
[4] = Homo sapiens, KN714 10 μM, read-out: Inhibition rate of cancer cell growth (%) (Actual value)

## COc1ccc2[nH]c([S+]([O-])Cc3ncc(C)c(OC)c3C)nc2c1 (stereo not shown) [KN510, omeprazole]
MKN-28 cells; [1]
  inhibition at 100 µM: 50.2%
MKN-28 cells; [2]
  inhibition at 200 µM: 74.8%
MKN-28 cells; KN510 100 μM
  Cancer cell growth rate Average (%): 49.80%
MKN-28 cells; KN510 200 μM
  Cancer cell growth rate Average (%): 25.20%
DU-145 cells; [1]
  inhibition at 100 µM: 50.4%
DU-145 cells; [2]
  inhibition at 200 µM: 62.9%
DU-145 cells; KN510 100 μM
  Cancer cell growth rate Average (%): 49.59%
DU-145 cells; KN510 200 μM
  Cancer cell growth rate Average (%): 37.08%
AGS cells; [1]
  inhibition at 100 µM: 39.6%
AGS cells; [2]
  inhibition at 200 µM: 69.5%
AGS cells; KN510 100 μM
  Cancer cell growth rate Average (%): 60.39%
AGS cells; KN510 200 μM
  Cancer cell growth rate Average (%): 30.51%
A549 cells; [1]
  inhibition at 100 µM: 44.6%
A549 cells; [2]
  inhibition at 200 µM: 69.7%
A549 cells; KN510 100 μM
  Cancer cell growth rate Average (%): 55.44%
A549 cells; KN510 200 μM
  Cancer cell growth rate Average (%): 30.29%
MCF-7 cells; Homo sapiens, MCF7, KN510 100 μM, read-out: Inhibition rate of cancer cell growth (%) (Actual value)
  inhibition at 100 µM: 34.7%
MCF-7 cells; Homo sapiens, MCF7, KN510 200 μM, read-out: Inhibition rate of cancer cell growth (%) (Actual value)
  inhibition at 200 µM: 50%
MCF-7 cells; KN510 100 μM
  Cancer cell growth rate Average (%): 65.30%
MCF-7 cells; KN510 200 μM
  Cancer cell growth rate Average (%): 49.96%
CAKI-1 cells; [1]
  inhibition at 100 µM: 32%
CAKI-1 cells; [2]
  inhibition at 200 µM: 72.9%
CAKI-1 cells; KN510 100 μM
  Cancer cell growth rate Average (%): 67.99%
CAKI-1 cells; KN510 200 μM
  Cancer cell growth rate Average (%): 27.11%
HCT-116 cells; [1]
  inhibition at 100 µM: 15.7%
HCT-116 cells; [2]
  inhibition at 200 µM: 31.1%
HCT-116 cells; KN510 100 μM
  Cancer cell growth rate Average (%): 84.28%
HCT-116 cells; KN510 200 μM
  Cancer cell growth rate Average (%): 68.86%
DLD-1 cells; [1]
  inhibition at 100 µM: 26.1%
DLD-1 cells; [2]
  inhibition at 200 µM: 63.2%
DLD-1 cells; KN510 100 μM
  Cancer cell growth rate Average (%): 73.90%
DLD-1 cells; KN510 200 μM
  Cancer cell growth rate Average (%): 36.78%

## CSc1ccc2c(c1)N(CCC1CCCCN1C)c1ccccc1S2 (stereo not shown) [KN714, 10-[2-(1-methyl-2-piperidyl)ethyl]-2-(methylthio)phenothiazine]
MKN-28 cells; [3]
  inhibition at 5 µM: 8.19%
MKN-28 cells; [4]
  inhibition at 10 µM: 64%
MKN-28 cells; KN714 5 μM
  Cancer cell growth rate Average (%): 91.81%
MKN-28 cells; KN714 10 μM
  Cancer cell growth rate Average (%): 36.04%
DU-145 cells; [3]
  inhibition at 5 µM: 24.5%
DU-145 cells; [4]
  inhibition at 10 µM: 44.7%
DU-145 cells; KN714 5 μM
  Cancer cell growth rate Average (%): 75.49%
DU-145 cells; KN714 10 μM
  Cancer cell growth rate Average (%): 55.27%
AGS cells; [3]
  inhibition at 5 µM: 32.9%
AGS cells; [4]
  inhibition at 10 µM: 84.5%
AGS cells; KN714 5 μM
  Cancer cell growth rate Average (%): 67.13%
AGS cells; KN714 10 μM
  Cancer cell growth rate Average (%): 15.46%
A549 cells; [3]
  inhibition at 5 µM: 2.15%
A549 cells; [4]
  inhibition at 10 µM: 35.4%
A549 cells; KN714 5 μM
  Cancer cell growth rate Average (%): 97.85%
A549 cells; KN714 10 μM
  Cancer cell growth rate Average (%): 64.57%
MCF-7 cells; Homo sapiens, MCF7, KN714 5 μM, read-out: Inhibition rate of cancer cell growth (%) (Actual value)
  inhibition at 5 µM: 1.49%
MCF-7 cells; Homo sapiens, MCF7, KN714 10 μM, read-out: Inhibition rate of cancer cell growth (%) (Actual value)
  inhibition at 10 µM: 60.3%
MCF-7 cells; KN714 5 μM
  Cancer cell growth rate Average (%): 98.51%
MCF-7 cells; KN714 10 μM
  Cancer cell growth rate Average (%): 39.69%
CAKI-1 cells; [3]
  inhibition at 5 µM: 24%
CAKI-1 cells; [4]
  inhibition at 10 µM: 49.4%
CAKI-1 cells; KN714 5 μM
  Cancer cell growth rate Average (%): 75.99%
CAKI-1 cells; KN714 10 μM
  Cancer cell growth rate Average (%): 50.59%
HCT-116 cells; [3]
  inhibition at 5 µM: 7.99%
HCT-116 cells; [4]
  inhibition at 10 µM: 32.2%
HCT-116 cells; KN714 5 μM
  Cancer cell growth rate Average (%): 92.01%
HCT-116 cells; KN714 10 μM
  Cancer cell growth rate Average (%): 67.80%
DLD-1 cells; [3]
  inhibition at 5 µM: 8.66%
DLD-1 cells; [4]
  inhibition at 10 µM: 13.1%
DLD-1 cells; KN714 5 μM
  Cancer cell growth rate Average (%): 91.34%
DLD-1 cells; KN714 10 μM
  Cancer cell growth rate Average (%): 86.87%
